According to patent publication US5801016A, “DNA fragment, recombinant vector containing the same and method for expressing foreign genes using the same” (Japan Tobacco Inc., priority 1995, dated 1998):

Legend:
[1] = biological target: T1, rice (Oryza sativa) bran phospholipase D (PLD), purified fraction Mono Q 2nd-II (Oryza sativa subsp. japonica, UniProt Q43007); assay: PLD enzyme activity with phosphatidylcholine as substrate, quantifying the choline generated; type: biochemical; conditions: eluted solution Mono Q 2nd-II
T1 construct: bran of rice (Oryza sativa); from tissue; host or cells: rice (Oryza sativa) bran, variety KOSHIHIKARI, purified to Mono Q 2nd-II
T1 sequence (Q43007 47-812): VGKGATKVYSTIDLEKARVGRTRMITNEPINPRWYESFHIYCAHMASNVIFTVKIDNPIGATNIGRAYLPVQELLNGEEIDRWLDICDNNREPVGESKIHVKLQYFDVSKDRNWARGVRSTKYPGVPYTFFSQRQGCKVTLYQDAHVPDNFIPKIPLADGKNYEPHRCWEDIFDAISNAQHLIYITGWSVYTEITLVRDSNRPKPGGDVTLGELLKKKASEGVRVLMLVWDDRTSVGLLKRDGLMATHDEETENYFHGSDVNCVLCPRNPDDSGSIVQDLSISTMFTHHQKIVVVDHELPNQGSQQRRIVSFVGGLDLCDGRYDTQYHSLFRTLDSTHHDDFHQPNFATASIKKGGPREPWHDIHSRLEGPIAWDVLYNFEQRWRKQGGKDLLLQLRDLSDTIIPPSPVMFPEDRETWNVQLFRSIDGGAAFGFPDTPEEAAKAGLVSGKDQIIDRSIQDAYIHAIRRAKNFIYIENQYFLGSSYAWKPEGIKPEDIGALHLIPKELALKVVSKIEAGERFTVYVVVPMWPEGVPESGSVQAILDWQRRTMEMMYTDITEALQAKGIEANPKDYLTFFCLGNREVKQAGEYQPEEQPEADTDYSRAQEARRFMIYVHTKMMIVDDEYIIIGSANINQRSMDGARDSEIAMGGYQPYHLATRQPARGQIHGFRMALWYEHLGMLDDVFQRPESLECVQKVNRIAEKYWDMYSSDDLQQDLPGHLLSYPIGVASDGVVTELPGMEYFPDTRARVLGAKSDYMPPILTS
Protocol: (§1) For purification, a reference (Takano et al., Journal of Japan Food Industry Association, 34, 8-13 (1987) was referred. The enzyme activity was measured by employing phosphatidylcholine as a substrate and quantifying the choline generated by the enzyme reaction (Imamura et al., J. Biochem. 83, 677-680 (1978)). It should be noted, however, the enzyme reaction was stopped by heat treatment at 95° C. for 5 minutes.
(§2) Properties of the enzymes contained in the two fractions were determined. The buffer solutions used for the measurement of the optimum pH were sodium acetate (pH 4-6), MES-NaOH (pH 5.5-7.0) and Tris-HCl (pH 7-9), all of which have a concentration of 100 mM in all of the buffer solutions. The pH stability means the pH range in which decrease in the enzyme activity is not observed after leaving the enzyme at the respective pH at 25° C. for 30 minutes. The temperature stability was measured by measuring the remaining activity after leaving the enzyme to stand at 4° C., 25° C., 37° C. or 50° C. for 30 minutes. The substrate specificity was measured at a substrate concentration of 5 mM and expressed in terms of the relative activity taking the enzyme activity to phosphatidylcholine as 100.

[2] = biological target: T2, rice (Oryza sativa) bran phospholipase D (PLD), purified fraction Mono Q 2nd-I (Oryza sativa subsp. japonica, UniProt Q43007); assay: as above; type: biochemical; conditions: eluted solution Mono Q 2nd-I
T2 construct: bran of rice (Oryza sativa); from tissue; host or cells: rice (Oryza sativa) bran, variety KOSHIHIKARI, purified to Mono Q 2nd-I
T2 sequence (Q43007 47-812): T1 sequence (Q43007 47-812)
Protocol: as §1, §2

Substance: phosphatidylcholine
- Km [1]: 290 µM
- Km [2]: 290 µM
